# Results as given in PubChem BioAssay (NCI).
#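 Assay format: 96-well plates, 48-hour exposure. Here, GI50 denotes the concentration required for 50% inhibition of growth. TGI: concentration producing complete growth inhibition.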
# Legend:
# Test in all cases: NCI anticancer screen, dose series, 48 h
# [1] = tested on: MDA-MB-435
# [2] = tested on: OVCAR-5 ovarian
# [3] = tested on: SN12C renal
# [4] = tested on: A498 renal
# [5] = tested on: MDA-MB-231 breast
# [6] = tested on: BT-549 breast
# [7] = tested on: HS 578T breast
# [8] = tested on: MOLT-4 leukemia
# [9] = tested on: SW-620 colon
# [10] = tested on: COLO 205 colon
# [11] = tested on: HOP-62 NSCLC
# [12] = tested on: MCF7 breast
# [13] = tested on: NCI-H460 lung
# [14] = tested on: SK-MEL-28 melanoma
# [15] = tested on: HCT-116 colon
# [16] = tested on: RPMI-8226 leukemia
# [17] = tested on: UO-31 renal
# [18] = tested on: SK-OV-3 ovarian
# [19] = tested on: SF-295 CNS
# [20] = tested on: CAKI-1 renal
# [21] = tested on: HOP-92 NSCLC
# [22] = tested on: SNB-75 CNS
# [23] = tested on: HCT-15 colon
# [24] = tested on: OVCAR-4 ovarian
# [25] = tested on: IGROV1 ovarian
# [26] = tested on: SNB-19 CNS
# [27] = tested on: UACC-257 melanoma
# [28] = tested on: OVCAR-8 ovarian
# [29] = tested on: SF-268 CNS
# [30] = tested on: SK-MEL-5 melanoma
# [31] = tested on: KM12 colon
# [32] = tested on: K-562 leukemia
# [33] = tested on: CCRF-CEM leukemia
# [34] = tested on: DU-145 prostate
# [35] = tested on: NCI/ADR-RES ovarian
# [36] = tested on: HT29 colon
# [37] = tested on: UACC-62 melanoma
# [38] = tested on: SK-MEL-2 melanoma
# [39] = tested on: TK-10 renal
# [40] = tested on: 786-0 renal
# [41] = tested on: SF-539 CNS
# [42] = tested on: NCI-H23 lung
# [43] = tested on: HCC-2998 colon
# [44] = tested on: LOX IMVI melanoma
# [45] = tested on: EKVX NSCLC
# [46] = tested on: U251 CNS
# [47] = tested on: NCI-H226 lung
# [48] = tested on: T-47D breast
structure (smiles),measurement,setting,value
COc1cc(C(=O)O[C@H](C(=O)NCCN(C)CCNC(=O)[C@@H](OC(=O)c2cc(OC)cc3c(C)cccc23)[C@]2(C)CO2)[C@]2(C)CO2)c2cccc(C)c2c1,GI50,[1],< 10 nM
same,TGI,[1],39.8 nM
same,GI50,[2],217 nM
same,TGI,[2],2750 nM
same,GI50,[3],< 30.8 nM
same,TGI,[3],300 nM
same,GI50,[4],888 nM
same,TGI,[4],2820 nM
same,GI50,[5],264 nM
same,TGI,[5],1580 nM
same,GI50,[6],342 nM
same,TGI,[6],4.85 µM
same,GI50,[7],304 nM
same,TGI,[7],> 100 µM
same,GI50,[8],< 10 nM
same,TGI,[8],153 nM
same,GI50,[9],< 10 nM
same,TGI,[9],152 nM
same,GI50,[10],39.1 nM
same,TGI,[10],1550 nM
same,GI50,[11],893 nM
same,TGI,[11],7.85 µM
same,GI50,[12],< 10 nM
same,TGI,[12],327 nM
same,GI50,[13],< 10 nM
same,TGI,[13],1610 nM
same,GI50,[14],171 nM
same,TGI,[14],512 nM
same,GI50,[15],75.1 nM
same,TGI,[15],2930 nM
same,GI50,[16],246 nM
same,TGI,[16],5.85 µM
same,GI50,[17],417 nM
same,TGI,[17],> 100 µM
same,GI50,[18],575 nM
same,TGI,[18],3.6 µM
same,GI50,[19],< 33.7 nM
same,TGI,[19],182 nM
same,GI50,[20],< 10 nM
same,TGI,[20],47.7 nM
same,GI50,[21],19.2 nM
same,TGI,[21],173 nM
same,GI50,[22],111 nM
same,TGI,[22],1020 nM
same,GI50,[23],10.9 nM
same,TGI,[23],1020 nM
same,GI50,[24],56 nM
same,TGI,[24],679 nM
same,GI50,[25],< 42.5 nM
same,GI50,[26],265 nM
same,TGI,[26],1180 nM
same,GI50,[27],416 nM
same,TGI,[27],2380 nM
same,GI50,[28],< 10 nM
same,TGI,[28],< 32.4 nM
same,GI50,[29],< 10 nM
same,TGI,[29],929 nM
same,GI50,[30],17.3 nM
same,TGI,[30],178 nM
same,GI50,[31],54.9 nM
same,TGI,[31],465 nM
same,GI50,[32],< 38.9 nM
same,TGI,[32],6.85 µM
same,GI50,[33],< 10 nM
same,GI50,[34],< 32.8 nM
same,TGI,[34],162 nM
same,GI50,[35],< 50.6 nM
same,TGI,[35],1300 nM
same,GI50,[36],< 18.4 nM
same,TGI,[36],> 27 µM
same,GI50,[37],154 nM
same,TGI,[37],338 nM
same,GI50,[38],253 nM
same,TGI,[38],> 100 µM
same,GI50,[39],348 nM
same,TGI,[39],1570 nM
same,TGI,[40],179 nM
same,GI50,[41],< 10 nM
same,TGI,[41],50.4 nM
same,GI50,[42],< 10 nM
same,TGI,[42],13.7 nM
same,GI50,[43],< 24.1 nM
same,TGI,[43],771 nM
same,GI50,[44],< 10 nM
same,GI50,[45],106 nM
same,TGI,[45],1720 nM
same,GI50,[46],< 10 nM
same,TGI,[46],13.9 nM
same,GI50,[47],182 nM
same,TGI,[47],721 nM
same,GI50,[48],92.4 nM
same,TGI,[48],1700 nM
